What was measured:
[1] = tested on: Endo/exonuclease in Pneumocystis carinii; settings: cited from earlier work
[2] = tested on: human endo-exonuclease; assay: Endo-exonuclease inhibition assay (digestion of circular plasmid DNA, agarose gel); assay type: biochemical
Protocol: The human endo-exonuclease was isolated according to the method described by Liu and Chow et al (1995). The cultured cells were detached with trypsin-EDTA and the cell suspensions were centrifuged at 4° C. with a force of 700 g for 10 minutes. The cell pellets were washed twice with cold phosphate buffered saline (PBS). The cells were then resuspended and sonicated in 20 mM Tris-HCl, pH 7.5, containing 5 mM EDTA and 1 mM PMSF (buffer A). The resulting cell lysis suspensions were centrifuged at 4° C. at 10,000 g for 15 min. The supernatants were then loaded onto an antibody-protein A-Sepharose affinity column, as previously described by Chow and Resnick (1987). After washing extensively with buffer A (i.e. until the A280 of the eluates were zero), the column was then eluted with buffer A containing 3.5 M MgCl2 to elute the endo-exonuclease. The eluted endo-exonuclease was dialyzed extensively against buffer A with at least two changes of buffer and one change of distilled water. The endo-exonuclease was then concentrated by lyophilization.
The endo-exonuclease activities were determined by measuring the digestion of circular plasmid DNA following the exemplary set of steps. Superhelical pBR322 DNA (or YEp DNA) was treated with endo-exonuclease at 37° C. Reactions were stopped by the addition of a solution containing 5 mM EDTA, 1% SDS, 30% glycerol, and bromophenol blue. The resulting mixtures were then loaded onto a 0.7% agarose gel and electrophoresed for 3 hours at 70 V. The gels were stained with 100 ml of 0.5 μg/ml ethidium bromide solution. Endo-exonuclease activities were measured as the rate of conversion from RFI to RFII to RFIII and subsequent fragments.
For the inhibition assay, pentamidine, mono-amidine compounds according to the present teachings and di-amidine compounds according to the present teachings were added to the endo-exonuclease prior to the start of the nuclease reaction. In order to arrive at the measurements related to the % of cell growth of H661, the MTT assay as described above was performed. The resulting endo-exonuclease inhibition is shown in the Table 1 and Table 2 that follow: […]

[3] = tested on: HT29 Colon Cancer Cell Line; assay: MTT assay on HT29 Colon Cancer Cell Line; assay type: cell-based, human
Protocol: (§1) Cell lines from human colon adenocarcinoma (HT29), human breast adenocarcinoma (MCF7) and human cervical epithelioid carcinoma (HeLa) were obtained from the American Type Culture Collection (ATCC) and have ATCC accession numbers HTB-38, HTB-22, and CCL-2 respectively. The normal primary cell, NHDF, was obtained from Dr. Shirley Lehnert. These cells are normal human skin fibroblasts. The cells were grown in RPMI media supplemented with 10% FCS at 37° C. in a humidified incubator with 5% CO2.
(§2) Cell Survival—MTT assay: The MTT (3-[4,5-Dimethylthiazol-2-yl]-2,5 diphenyl tertrazolim bromide) method of determining cell growth/cytotoxicity is used to determine cell survival. MIT is a tetrazolium salt cleaved by mitochondrial dehydrogenases of living cells. Cleavage converts yellow, water soluble MTT to an insoluble, purple formazan crystal. The crystals can be solubilized with a 50% N,N-dimethylformamide (vol/vol), 20% SDS (wt/vol) solution (pH4.7), and absorbance determined at a wavelength of 570 nm. Dead cells will not cleave MTT and uncleaved MTT is not detectable at this wavelength. The amount of MTT that is cleaved increases with increasing cell numbers, and decreases as a result of cell cytotoxicity (Niks and Otto 1990, Hussain et al. 1993). Cells were harvested from cell cultures using a standard protocol (i.e. Trypsin/EDTA). The cells (1000 to 5000 cells depending on cell type in 50 μl) were then plated and incubated overnight at 37° C. The compound (e.g. the compound of formula (I); compound of formula (II); pentamidine; or the vehicle) was introduced. After 2 days of incubation at 37° C., 10 μl of a 5 mg/ml solution of MTT was then added to all the experimental wells as well as the media control well. The plates were further incubated for 4 hours. MTT solubilization buffer (100 μl) was then added and the plates were incubated overnight at 37° C. The plates were then read on an ELISA plate reader with absorbance at 570 nm and a reference at 630 nm.
(§3) Iniparib, Veliparib and Olaparib were also subjected to the MTT assay without an endo-exonuclease compound as controls.

[4] = tested on: Lewis Lung cancer cells; assay: Lewis Lung cancer secondary lung tumours in mice after removal of the primary tumour; assay type: in vivo; settings: treated after surgical removal of primary tumour
Protocol: Lewis Lung cancer cells are injected subcutaneously into standard laboratory mice […]. Thereafter, they rapidly formed solid tumours. The sizes of the tumours can be measured. Although the injected cells are derived from lung cancers, the tumours actually grow in the back of the mice. All animals were inoculated at the same site. Primary tumours were allowed to grow until they were 0.5-1.0 cm^3 in size. At this point, cells from the tumours start circulating in the blood streams of the mice. These circulating cells have the capacity to form secondary tumours in the lung. The primary tumours are removed surgically from the mice. The mice are then treated with the amidine compounds so as to try and control the growth of secondary tumours. The extent to which control has been achieved is measured by sacrificing the mice and by physically counting the new tumours that can be seen growing on the surfaces of the lungs.

[5] = tested on: MCF7 Breast Cancer Cell Line; assay: MTT assay on MCF7 Breast Cancer Cell Line; assay type: cell-based, human
Protocol: as §1, §2, §3

[6] = tested on: H460 Lung Carcinoma Cell Line; assay: MTT assay on H460 Lung Carcinoma Cell Line; assay type: cell-based
Excerpt: as §2, §3

[7] = cited from earlier work
[8] = tested on: H661 (Lung Cancer Cell); assay: MTT assay, cell growth of H661 lung cancer cell; assay type: cell-based
Excerpt: as §2, with “4 hours. […] The plates” for “4 hours. MTT solubilization buffer (100 μl) was then added and the plates were incubated overnight at 37° C. The plates”, “630 nm. […]” for “630 nm.”

[9] = Homo sapiens, HT-29, PARP inhibitor alone: Iniparib 42 μM, Veliparib 50 μM, Olaparib 73 μM
[10] = Homo sapiens, PARP inhibitor alone: Iniparib 42 μM, Veliparib 50 μM, Olaparib 73 μM
[11] = Homo sapiens, NCI-H460, PARP inhibitor alone: Iniparib 42 μM, Veliparib 50 μM, Olaparib 73 μM

In the case of CC(C)CNC(=N)c1ccc(-c2ccc(-c3ccc(C(=N)NCC(C)C)cc3)o2)cc1 [2,5-bis[4-N-isobutylguanyl)phenyl]furan], the “nuclease inhibition activity in P. carinii” value [1] is given as “showed nuclease inhibition activity”.
For N=C(Nc1ccccc1)c1ccc(OCCCCCOc2ccc(C(=N)Nc3ccccc3)cc2)cc1 [Di-Amidine A], the IC50 [2] was 58 µM, the “% Inhibition” value ([3]; MTDX101 33 μM alone) was 15% and the “% Inhibition” value ([3]; MTDX101 336 μM alone) was 64%. For the same compound, the “Lung Cysts remaining (% of Control)” value [4] was 1.7 % of Control, the “% Inhibition” value ([5]; MTDX101 33 μM alone) was 20% and the “% Inhibition” value ([5]; MTDX101 336 μM alone) was 80%. The “% Inhibition” value ([6]; MTDX101 33 μM alone) was 25% and the “% Inhibition” value ([6]; MTDX101 336 μM alone) was 85%.
For N=C(N)c1ccc(OCCCCCOc2ccc(C(=N)N)cc2)cc1 [Pentamidine, pentamidine], the IC50 [2] is given as 50 µM, the “Endo-exonuclease Inhibition at 50 μM (%)” value ([2]; 50 μM) is given as 50% and the safety for patients ([7]; 4 mg/kg to 7 mg/kg for two days every two weeks) is given as “safe for patients”. For the same compound, the “toxicity (known clinical data)” value ([7]; human, in vivo) was “low toxicity”, the “Lung Cysts remaining (% of Control)” value [4] was 4.5 % of Control and the “H661 (Lung Cancer Cell) (% of Cell Growth at 2.5 μM)” value ([8]; 2.5 μM, negative value = cell killing) was 20 ± 2%. For the same compound, the “death of the cancer cells (H661)” value ([8]; Table 1) was “Death of the cancer cells was not observed”.
NC(=O)c1ccc(I)c([N+](=O)[O-])c1 [Iniparib] showed an inhibition at 42 µM [3, 9] of 4.8%, an inhibition at 42 µM [5, 10] of 5% and an inhibition at 42 µM [6, 11] of 0.8%.
In the case of C[C@]1(c2nc3c(C(N)=O)cccc3[nH]2)CCCN1 [Veliparib], the inhibition at 50 µM [3, 9] is reported as 6%, the inhibition at 50 µM [5, 10] is reported as 13% and the inhibition at 50 µM [6, 11] is reported as 19%.
For N=C(NC1CC1)c1ccc(-c2ccc(-c3ccc(C(=N)NC4CC4)cc3)o2)cc1 [2,5-bis [4-N-(cyclopropylguanyl)phenyl] furan], the “nuclease inhibition activity in P. carinii” value [1] is given as “showed nuclease inhibition activity”.
For CC(C)NC(=N)c1ccc(OCCCCCOc2ccc(C(=N)NC(C)C)cc2)cc1 [Di-Amidine B], the IC50 [2] was 14 µM and the “Lung Cysts remaining (% of Control)” value [4] was 0.22 % of Control.
For N=C(NCC1CC1)c1ccc(-c2ccc(-c3ccc(C(=N)NCC4CC4)cc3)o2)cc1 [2,5-bis[4-[(N-cyclopropylmethylguanyl)phenyl]furan], the “nuclease inhibition activity in P. carinii” value [1] is given as “showed nuclease inhibition activity”.
For N=C(NC1CCCC1)c1ccc(-c2ccc(-c3ccc(C(=N)NC4CCCC4)cc3)o2)cc1 [2,5-bis[(4-N-cyclopentylguanyl)phenyl]furan], the “nuclease inhibition activity in P. carinii” value [1] is given as “showed nuclease inhibition activity”.
In the case of O=C(c1cc(Cc2n[nH]c(=O)c3ccccc23)ccc1F)N1CCN(C(=O)C2CC2)CC1 [Olaparib], the inhibition at 73 µM [3, 9] is reported as 14%, the inhibition at 73 µM [5, 10] is reported as 17% and the inhibition at 73 µM [6, 11] is reported as 11%.
For CC(C)NC(=N)c1ccc(-c2ccc(-c3ccc(C(=N)NC(C)C)cc3)o2)cc1 [2,5-bis[4-(N-isopropylguanyl)phenyl]furan], the “nuclease inhibition activity in P. carinii” value [1] is given as “inhibits endo-exonuclease activity”.
In the case of N=C(NC1CCC1)c1ccc(-c2ccc(-c3ccc(C(=N)NC4CCC4)cc3)o2)cc1 [2,5-bis[(4-N-cyclobutylgunayl)phenyl]furan], the “nuclease inhibition activity in P. carinii” value [1] is listed as “showed nuclease inhibition activity”.
In the case of c1cc(-c2ccc(-c3ccc(C4=NCCCN4)cc3)o2)ccc1C1=NCCCN1 [2,5-bis-p[3,4,5,6-tetrahydropyrimidyl)phenyl]furan], the “nuclease inhibition activity in P. carinii” value [1] is given as “showed nuclease inhibition activity”.
In the case of N=C(N)c1ccc(-c2ccc(-c3ccc(C(=N)N)cc3)o2)cc1 [2,5-bis[4-guanylphenyl]furan], the “nuclease inhibition activity in P. carinii” value [1] is listed as “showed nuclease inhibition activity”.

— patent publication US12239617B2, “Mono- and di-amidine endo-exonuclease inhibitors and methods for inhibiting endo-exonuclease activity” (MONTDOREX INC., priority 2017, dated 2025)
